Test results published in PubChem BioAssay AID686963 (Sanford-Burnham Center for Chemical Genomics, 2013).
Activity calls are given as the source filed them.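 How the source made its calls: active means compounds blocking the small tyrosine phosphatase LMPTP with an IC50 of 20 micromolar or lower; inactive means the rest.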

These compounds were tested against Low molecular weight phosphotyrosine protein phosphatase (Homo sapiens) (UniProt P24666) (assay: inhibition of human LMPTP, pNPP readout – biochemical, absorbance, orthogonal assay, SAR follow-up (AID 686963)). Details: recombinant LMPTP-A, 50 min.
Sequence of Low molecular weight phosphotyrosine protein phosphatase (Homo sapiens) (P24666 whole entry, looked up): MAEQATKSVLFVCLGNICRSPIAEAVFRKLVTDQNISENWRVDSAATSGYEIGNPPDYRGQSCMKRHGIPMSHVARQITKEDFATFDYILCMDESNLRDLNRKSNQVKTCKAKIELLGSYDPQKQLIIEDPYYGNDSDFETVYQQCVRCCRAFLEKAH

IC50 | SMILES
> 80 µM (inactive) | COc1ccccc1CNc1ncnc2ccsc12
inactive | c1ccc(-c2nc(NCc3cccnc3)c3ccccc3n2)cc1
inactive | O=C(OCCNc1nc(-c2ccccc2)nc2ccccc12)c1cccnc1
inactive | CCc1nc(N)nc(N)c1-c1ccc(Cl)cc1
inactive | Cc1ccc(-c2nc(NCc3cccnc3)c3ccccc3n2)cc1
inactive | Fc1ccccc1-c1nc(NC2CCCC2)c2ccccc2n1
13.5 µM | Nc1nc(N)c(Cc2ccc(Cl)cc2Cl)c(N)n1
inactive | Cc1ccc(-c2nc(NCCN3CCOCC3)c3ccccc3n2)cc1
inactive | CC(C)OCCCNc1nc(-c2ccccc2)nc2ccccc12
inactive | Cc1cccc(-c2nc(NCCCN3CCOCC3)c3ccccc3n2)c1

Continued, compound first:

SMILES | IC50
c1ccc(-c2nc(NCCCn3ccnc3)c3ccccc3n2)cc1 | inactive
O=C(OCCNc1nc(-c2ccccc2)nc2ccccc12)c1ccncc1 | inactive
Fc1ccccc1-c1nc(NCCCN2CCOCC2)c2ccccc2n1 | inactive
c1ccc(-c2cc(N3CCCCC3)c3ccccc3n2)cc1 | inactive
Cc1c(CCC(=O)O)c(=O)oc2c(C)c(OCc3ccccc3Cl)ccc12 | 17.5 µM
Clc1cccc(Cl)c1Cn1cnc(=NCc2ccco2)c2[nH]cnc21 | 11.6 µM
c1ccc(-c2cc(NCCN3CCCCC3)c3ccccc3n2)cc1 | 4.97 µM
